Columns and labels:
[1] = First-in-human study Part 3, food effect PK; type: in vivo
Text: Part 3 was an open-label, randomized, two-way cross-over, single dose study to assess food effects. In Part 3, each subject participated in a 28 day screening period (Day −29 to −2), 2 baseline (Day −1) and 2 treatment periods, each consisting of a single dose administration on Day 1 followed by safety and PK assessment up to Day 5. Treatment period 2 consisted of a follow-up visit and an end of study evaluation on Day 22 and 40, respectively. The two treatment periods were separated by a wash-out period of at least 18 days (+1-1 day).
Subjects were randomized to one of the 2 treatment sequences (Table 9) in the ratio of 1:1. Definition of treatment sequences for Part 3
Pharmacokinetic samples were obtained in blood and evaluated in all subjects at all dose levels. The samples from placebo subjects were not analyzed. The samples for PK assessments from subjects were collected at time points defined in the study. Compound (I) concentrations were determined in blood by a validated LC-MS/MS method.

[2] = Safety and tolerability in healthy volunteers; type: in vivo, human
Experimental: Standard safety monitoring was used throughout all study parts. A dedicated assessment of potential skin bruising events were included. All vital signs, physical examination and subject history, ECGs, adverse events, and laboratory safety parameters (blood chemistry, hematology and urinalysis) up to 96 hours post last dose as well as PK data from the previous dose group (if available) up to 48 hours post last dose were to be reviewed in a blinded fashion for each cohort before dose escalation. Summary safety reports of reported adverse events, clinical safety laboratory parameters, QTc and heart rate were provided after completion of each dose level.
For the analysis of adverse effects, the Placebo subjects from all SAD and MAD cohorts (2 per cohort) and separated by the SAD and MAD parts were pooled into one Placebo group (n=20 for SAD and n=16 for MAD) to be compared with each single compound (I) dose group (n=6 each) and the total compound (I) group (n=60 for SAD and n=48 for MAD). There were no apparent major differences in the demographic data between placebo and the active groups both for the SAD and MAD populations.

[3] = tested on: passive cutaneous anaphylaxis (PCA); assay: Passive cutaneous anaphylaxis (PCA) model, Evans blue extravasation; type: in vivo; conditions: mouse PCA
Experimental: The effects of compound (I) on acute skin hypersensitivity were also assessed after two oral doses of compound (I) in the mouse of model of passive cutaneous anaphylaxis (PCA) (Ovary 1958). The mouse PCA model was used at a low dose of sensitizing IgE antibody to minimize complement-dependent anaphylatoxins (Schafer et al. 2013, The journal of allergy and clinical immunology, 131(2), pp. 541; Hata et al. 1998, Journal of Experimental Medicine, 187(8), pp. 1235). […] (FIG. 3). Spleen occupancy at 2.5 hours post last dose ranged from 89.1 to 99.7% (representing peak occupancy) (FIG. 4).

[4] = biological target: T1, BTK (Rattus norvegicus, UniProt Q5S255); assay: BTK occupancy ex vivo immunoassay in rat tissues after oral dosing
T1 construct: Unoccupied BTK, as well as total BTK relative protein levels were determined in lysates of selected tissues; from tissue; host or cells: rat spleen, blood, lymph nodes, lung
T1 sequence (Q5S255 1-660): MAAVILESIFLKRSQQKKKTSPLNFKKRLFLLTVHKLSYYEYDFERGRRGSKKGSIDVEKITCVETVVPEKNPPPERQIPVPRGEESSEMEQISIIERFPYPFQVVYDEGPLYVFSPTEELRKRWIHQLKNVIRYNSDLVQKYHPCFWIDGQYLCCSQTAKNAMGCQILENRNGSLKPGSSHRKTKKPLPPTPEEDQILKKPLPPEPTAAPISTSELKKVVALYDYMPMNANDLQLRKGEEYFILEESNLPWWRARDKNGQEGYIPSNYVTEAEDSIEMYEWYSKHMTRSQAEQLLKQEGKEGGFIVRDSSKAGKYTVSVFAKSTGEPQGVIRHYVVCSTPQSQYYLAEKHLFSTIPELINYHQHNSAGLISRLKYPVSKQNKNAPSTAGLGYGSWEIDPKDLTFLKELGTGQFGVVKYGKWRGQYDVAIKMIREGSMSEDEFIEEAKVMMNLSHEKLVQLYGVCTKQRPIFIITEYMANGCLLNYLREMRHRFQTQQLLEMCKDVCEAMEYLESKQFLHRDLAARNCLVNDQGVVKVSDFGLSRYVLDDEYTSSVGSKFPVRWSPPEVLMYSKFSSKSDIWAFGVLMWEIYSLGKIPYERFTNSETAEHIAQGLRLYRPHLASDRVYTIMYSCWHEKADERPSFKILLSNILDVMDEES
Experimental: The in vivo PD effects of an irreversible BTK inhibitor like compound (I) are determined by the extent and duration of covalent BTK occupancy by the inhibitor. BTK occupancy after treatment with Compound of Formula (I) (also referenced to as Compound (I)) was measured in an ex vivo immunoassay. The fraction of unoccupied BTK protein was assayed after in vitro incubation with a covalent biotinylated BTK probe, since compound (I) and the probe bind to BTK in a mutually exclusive manner. Unoccupied BTK, as well as total BTK relative protein levels were determined in lysates of selected tissues and levels of unoccupied BTK were normalized to total BTK protein levels in the same samples.
From the experimental data it was apparent that a short transient systemic exposure of compound (I) is sufficient to achieve full BTK occupancy in several tissues at low oral doses of 1-3 mg/kg. […] This very low and transient systemic exposure is consistent with the PK/PD model typical of irreversible inhibitors.
The duration of BTK occupancy was determined in rats and mice after single oral dose of compound (I) for spleen, blood, lymph nodes and lung. […] The longer persistence of BTK occupancy in blood has been reported before (Advani et al 2013, J Clin Onc; 31(1):88-94).

[5] = biological target: T2, BTK (Homo sapiens, UniProt Q06187); assay: BTK occupancy in human whole blood (free and total BTK, ELISA on MSD platform); type: in vivo
T2 construct: from tissue; host or cells: human whole (peripheral) blood of healthy volunteers and atopic subjects
T2 sequence (Q06187 whole entry): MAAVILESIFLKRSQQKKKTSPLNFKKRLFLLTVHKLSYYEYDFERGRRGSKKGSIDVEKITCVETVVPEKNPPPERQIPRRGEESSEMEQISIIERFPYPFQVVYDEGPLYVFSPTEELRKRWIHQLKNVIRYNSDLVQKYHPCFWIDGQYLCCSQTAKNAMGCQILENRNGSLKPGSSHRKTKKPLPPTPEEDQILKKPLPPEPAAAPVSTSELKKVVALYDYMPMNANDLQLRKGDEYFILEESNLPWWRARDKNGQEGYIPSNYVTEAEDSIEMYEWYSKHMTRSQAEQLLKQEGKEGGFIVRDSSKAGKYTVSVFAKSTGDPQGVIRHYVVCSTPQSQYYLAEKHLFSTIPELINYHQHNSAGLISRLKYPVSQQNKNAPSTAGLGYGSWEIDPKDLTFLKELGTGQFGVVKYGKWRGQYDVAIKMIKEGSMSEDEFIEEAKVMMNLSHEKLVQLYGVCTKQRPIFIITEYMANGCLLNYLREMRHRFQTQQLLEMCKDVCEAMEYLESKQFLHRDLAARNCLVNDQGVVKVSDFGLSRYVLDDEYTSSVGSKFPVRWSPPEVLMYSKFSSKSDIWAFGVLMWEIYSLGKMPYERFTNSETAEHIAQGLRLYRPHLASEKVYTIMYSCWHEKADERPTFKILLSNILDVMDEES
Experimental: Pharmacodynamics (PD) was characterized by assessing target occupancy and distal pathway inhibition. Measurements of BTK occupancy in human whole blood (derived as ratio of free and total BTK), served as direct marker of therapeutic target engagement.
Compound of formula (I) is an irreversible inhibitor of BTK, the extent and duration of BTK occupancy were determined.
The relationship between dose and pharmacodynamics was characterized by measurements of BTK occupancy in human blood (derived as ratio of free and total BTK), a direct marker of therapeutic target engagement. BTK occupancy was determined for single ascending doses ranging 0.5 to 400 mg, for q.d. multiple ascending doses ranging from of 10 mg and 400 mg, and for b.i.d. multiple ascending doses of 100 mg and 200 mg.

Tmax ([1]; human, whole blood, single oral dose 60 mg, fasted): 1 h | AUC0-24, GeoMean ([1]; single dose 60 mg, FAST): 182.08 ng·h/mL | AUClast, GeoMean ([1]; single dose 60 mg, FAST): 177.17 ng·h/mL | Tlast, GeoMean ([1]; single dose 60 mg, FAST): 9.66 h | Tlast, Mean ([1]; single dose 60 mg, FAST): 10.50 h | Tmax, Mean ([1]; single dose 60 mg, FAST): 1.02 h | Tlast, GeoMean ([1]; single dose 60 mg, FED): 9.25 h | Tlast, Mean ([1]; single dose 60 mg, FED): 9.50 h | higher AUC0-24 fed vs fasted ([1]; single oral dose 60 mg): 1.4 fold | lower Cmax fed vs fasted ([1]; single oral dose 60 mg): 1.25 fold | spleen BTK occupancy ([4]; female rats, single oral dose 3 mg/kg): full | BTK occupancy half-life in spleen ([4]; rat spleen, single oral dose, estimated): approximately 5 hours | BTK occupancy half-life in blood ([4]; rats, single oral dose): approximately 87 hours | BTK occupancy in blood ([5]; 10 mg q.d.): nearly complete | duration of BTK occupancy in blood ([5]; blood): > 24 h | median BTK turnover T1/2 ([5]; blood, after single dose): about 48 hours | time to refresh BTK protein pool to pre-dose levels ([5]; blood, after single dose): about 10 days | duration of sustained BTK occupancy ([5]; blood, single doses of 30 mg and higher): > 24 h | time of peak target (BTK) occupancy post dose ([5]; peripheral blood): 0.5 h
Compound: C=CC(=O)N(C)CCOc1c(N)ncnc1-c1cc(F)cc(NC(=O)c2ccc(C3CC3)cc2F)c1C [Compound (I), N-(3-(6-Amino-5-(2-(N-methylacrylamido)ethoxy)pyrimidin-4-yl)-5-fluoro-2-methylphenyl)-4-cyclopropyl-2-fluorobenzamide]
serious or severe adverse events related to intake ([2]; 0.5 mg to 600 mg): no serious or severe adverse event | tolerability ([2]; 0.5 mg to 600 mg, single dose or up to 18 days once or twice daily): well tolerated | safety assessment of the FIH study ([2]; dosing up to 600 mg): does not reveal significant safety concerns | inhibition of skin edema (Evans blue extravasation) ([3]; two oral doses of 3 mg/kg 14 and 2 hours before challenge): 60.7% | inhibition of skin edema (Evans blue extravasation) ([3]; two oral doses of 10 mg/kg 14 and 2 hours before challenge): 66.9% | inhibition of skin edema (Evans blue extravasation) ([3]; two oral doses of 30 mg/kg 14 and 2 hours before challenge): 69.2% | inhibition of skin edema (Evans blue extravasation) ([3]; two oral doses of 100 mg/kg 14 and 2 hours before challenge): 87.4%

From US12419889B2, “Methods of treating chronic spontaneous urticaria using a bruton's tyrosine kinase inhibitor” (NOVARTIS AG, priority 2019, dated 2025)
